According to patent publication US11845760B2, “PRMT5 inhibitors” (AMGEN INC., priority 2020, dated 2023):

Legend:
HCT116 MTAP null cells = assay: HCT116 MTAP null cell line proliferation (CellTiter-Glo cell viability, 6 days); assay type: cell-based; settings: HCT116-MTAP null, 144 h, HCT116 MTAP null cells, 6 days of treatment, CellTiter-Glo cell viability; read-out: HCT-116 MTAP null IC50
Outline: (§1)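 Isogenic HCT116 pair (parent and MTAP double-allele knockout) in RPMI 1640 + 10% FBS, exposed 6 days to compound: 8–9-point 1:3 dilutions from 1 or 10 μM top, or 22-point 1:2 dilutions from 10 or 50 μM top. CellTiter-Glo luminescence; IC50 from sigmoidal fit (Hill −1) or 4-parameter logistic.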

HCT116 WT cells = assay: HCT116 WT cell line proliferation (CellTiter-Glo cell viability, 6 days); assay type: cell-based; settings: Homo sapiens, HCT-116, 144 h, HCT116 WT (parent) cells, 6 days of treatment, CellTiter-Glo cell viability; read-out: HCT-116 WT IC50
Outline: as §1

Compound | IC50 (HCT116 MTAP null cells) [nM] | IC50 (HCT116 WT cells) [nM]
CC1CN(C(=O)c2ccc3nc(N)c4c(c3c2)CO[C@@H]4C)CC1c1ccc(Br)cc1 (stereo partly drawn) [Example 402, ((3R)-4-amino-3-methyl-1,3-dihydrofuro[3,4-c]quinolin-8-yl)(3-(4-bromophenyl)-4-methylpyrrolidin-1-yl)methanone] | 833 | 13300
Cn1ncc2c(N)nc3cc(Cl)c(C(=O)N4CC(c5ccc(C(F)(F)F)cn5)C4)cc3c21 [Example 442, (4-amino-7-chloro-1-methyl-1H-pyrazolo[4,3-c]quinolin-8-yl)(3-(5-(trifluoromethyl)-2-pyridinyl)-1-azetidinyl)methanone] | 40 | 3610
C[C@@H]1COC[C@H](c2ccc(OCCC(F)(F)F)nn2)N1C(=O)c1cc2c3c(c(N)nc2cc1F)[C@@H](C)OC3 [Example 565, ((3R)-4-amino-7-fluoro-3-methyl-1,3-dihydrofuro[3,4-c]quinolin-8-yl)((3R,5S)-3-methyl-5-(6-(3,3,3-trifluoropropoxy)-3-pyridazinyl)-4-morpholinyl)methanone] | 6 | 72
CC1(C)OCc2c1c(N)nc1ccc(C(=O)N3CCOC[C@@H]3c3ccc(OC(F)(F)F)cc3)cc21 [Example 382, (4-amino-3,3-dimethyl-1H-furo[3,4-c]quinolin-8-yl)-[(3S)-3-[4-(trifluoromethoxy)phenyl]morpholin-4-yl]methanone] | 786 | > 10000
Cn1ncc2c(N)nc3cc(F)c(C(=O)N4CC[C@@H](Cc5ccc(C(F)(F)F)cc5)C4)cc3c21 (single isomer, unassigned) [Example 469] | 243 | 4950
C[C@H]1CN(C(=O)c2ccc3nc(N)c4c(c3c2)COC4)[C@@H](c2ccc(C(F)(F)F)cn2)CO1 (single isomer, unassigned) [Example 575] | 357 | 8480
C[C@H]1COC[C@@H](c2ccc(OC(F)F)nn2)N1C(=O)c1cc2c3c(c(N)nc2cc1F)COC3 (racemic) [Example 314, (4-amino-7-fluoro-1,3-dihydrofuro[3,4-c]quinolin-8-yl)((3R,5S)-3-(6-(difluoromethoxy)-3-pyridazinyl)-5-methyl-4-morpholinyl)methanone and (4-amino-7-fluoro-1,3-dihydrofuro[3,4-c]quinolin-8-yl)((3S,5R)-3-(6-(difluoromethoxy)-3-pyridazinyl)-5-methyl-4-morpholinyl)methanone] | 15 | 606
C[C@H]1COC[C@@H](c2ccc(C(F)(F)F)cn2)N1C(=O)c1cc2c3c(c(N)nc2cc1Cl)COC3 (racemic) [Example 301, (4-amino-7-chloro-1,3-dihydrofuro[3,4-c]quinolin-8-yl)((3R,5S)-3-methyl-5-(5-(trifluoromethyl)-2-pyridinyl)-4-morpholinyl)methanone and (4-amino-7-chloro-1,3-dihydrofuro[3,4-c]quinolin-8-yl)((3S,5R)-3-methyl-5-(5-(trifluoromethyl)-2-pyridinyl)-4-morpholinyl)methanone] | 6 | 60
Nc1nc2cnc(C(=O)N3CCC(F)(F)C[C@H]3c3ccc(C(F)(F)F)cc3)cc2c2c1COC2 (single isomer, unassigned) [Example 599] | > 10000 | > 10000
C[C@H]1COC[C@@H](c2ccc(OC(F)(F)F)cc2F)N1C(=O)c1cc2c3c(c(N)nc2cn1)COC3 (racemic) [Example 328, (4-amino-1,3-dihydrofuro[3,4-c][1,7]naphthyridin-8-yl)((3R,5S)-3-(2-fluoro-4-(trifluoromethoxy)phenyl)-5-methyl-4-morpholinyl)methanone and (4-amino-1,3-dihydrofuro[3,4-c][1,7]naphthyridin-8-yl)((3S,5R)-3-(2-fluoro-4-(trifluoromethoxy)phenyl)-5-methyl-4-morpholinyl)methanone] | 49 | 1000
